≈ marks a conversion by molar mass, not a printed value. Calls of active or inactive are those of the source. The calls are words filed in the database; no cut-off is given here.
Tests used:
[1] = Inhibition of bacterial Metallo-beta-lactamase IMP-1 using nitrocefin as substrate pre-incubated for 15 mins followed by substrate addition by microplate reader; parameters: species or system Bacteria
Escherichia coli [2] = assay: Antibacterial activity against Escherichia coli KB366 expressing IMP-1 assessed as inhibition of bacterial growth at 100 ug in presence of meropenem incubated overnight by paper disk method; format: functional; conditions: read-out: IZ
Escherichia coli [3] = assay: Antibacterial activity against Escherichia coli KB366 expressing IMP-1 assessed as inhibition of bacterial growth at 30 ug in presence of meropenem incubated overnight by paper disk method; format: functional; conditions: read-out: IZ
Escherichia coli [4] = assay: Antibacterial activity against Escherichia coli KB366 expressing IMP-1 assessed as inhibition of bacterial growth at 10 ug in presence of meropenem incubated overnight by paper disk method; format: functional; conditions: read-out: IZ
Escherichia coli [5] = assay: Antibacterial activity against Escherichia coli KB366 expressing IMP-1 assessed as inhibition of bacterial growth at 3 ug in presence of meropenem incubated overnight by paper disk method; format: functional; conditions: read-out: IZ
Escherichia coli [6] = assay: Antibacterial activity against Escherichia coli KB366 expressing IMP-1 assessed as inhibition of bacterial growth at 1 ug in presence of meropenem incubated overnight by paper disk method; format: functional; conditions: read-out: IZ
Escherichia coli [7] = assay: Antibacterial activity against Escherichia coli KB366 expressing IMP-1 assessed as inhibition of bacterial growth at 0.3 ug in presence of meropenem incubated overnight by paper disk method; format: functional; conditions: read-out: IZ
Escherichia coli [8] = assay: Antibacterial activity against Escherichia coli KB366 expressing IMP-1 assessed as inhibition of bacterial growth at 0.1 ug in presence of meropenem incubated overnight by paper disk method; format: functional; conditions: read-out: IZ
Escherichia coli [9] = assay: Antibacterial activity against Escherichia coli KB366 expressing IMP-1 assessed as inhibition of bacterial growth at 0.03 ug in presence of meropenem incubated overnight by paper disk method; format: functional; conditions: read-out: IZ
Escherichia coli [10] = assay: Antibacterial activity against Escherichia coli KB366 expressing IMP-1 assessed as inhibition of bacterial growth at 0.01 ug in presence of meropenem incubated overnight by paper disk method; format: functional; conditions: dose 0.01 µg
Escherichia coli [11] = assay: Antibacterial activity against Escherichia coli KB366 expressing IMP-1 assessed as inhibition of bacterial growth at 100 ug in absence of meropenem incubated overnight by paper disk method; format: functional, organism-based; conditions: dose 100.0 µg
Escherichia coli [12] = assay: Antibacterial activity against Escherichia coli KB366 expressing IMP-1 assessed as inhibition of bacterial growth at 30 ug in absence of meropenem incubated overnight by paper disk method; format: functional, organism-based; conditions: dose 30.0 µg
Escherichia coli [13] = assay: Antibacterial activity against Escherichia coli KB366 expressing IMP-1 assessed as inhibition of bacterial growth at 10 ug in absence of meropenem incubated overnight by paper disk method; format: functional, organism-based; conditions: dose 10.0 µg
Escherichia coli [14] = assay: Antibacterial activity against Escherichia coli KB366 expressing IMP-1 assessed as inhibition of bacterial growth at 3 ug in absence of meropenem incubated overnight by paper disk method; format: functional, organism-based; conditions: dose 3.0 µg
Escherichia coli [15] = assay: Antibacterial activity against Escherichia coli KB366 expressing IMP-1 assessed as inhibition of bacterial growth at 1 ug in absence of meropenem incubated overnight by paper disk method; format: functional, organism-based; conditions: dose 1.0 µg
Escherichia coli [16] = assay: Antibacterial activity against Escherichia coli KB366 expressing IMP-1 assessed as inhibition of bacterial growth at 0.3 ug in absence of meropenem incubated overnight by paper disk method; format: functional, organism-based; conditions: dose 0.3 µg
Escherichia coli [17] = assay: Antibacterial activity against Escherichia coli KB366 expressing IMP-1 assessed as inhibition of bacterial growth at 0.1 ug in absence of meropenem incubated overnight by paper disk method; format: functional, organism-based; conditions: dose 0.1 µg
Escherichia coli [18] = assay: Antibacterial activity against Escherichia coli KB366 expressing IMP-1 assessed as inhibition of bacterial growth at 0.03 ug in absence of meropenem incubated overnight by paper disk method; format: functional, organism-based; conditions: dose 0.03 µg
Escherichia coli [19] = assay: Antibacterial activity against Escherichia coli KB366 expressing IMP-1 assessed as inhibition of bacterial growth at 0.01 ug in absence of meropenem incubated overnight by paper disk method; format: functional, organism-based; conditions: dose 0.01 µg
Pseudomonas aeruginosa [20] = assay: Antibacterial activity against Pseudomonas aeruginosa KB367 expressing IMP-1 assessed as inhibition of bacterial growth at 100 ug in presence of meropenem incubated overnight by paper disk method; format: functional; conditions: read-out: IZ
Pseudomonas aeruginosa [21] = assay: Antibacterial activity against Pseudomonas aeruginosa KB367 expressing IMP-1 assessed as inhibition of bacterial growth at 30 ug in presence of meropenem incubated overnight by paper disk method; format: functional; conditions: read-out: IZ
Pseudomonas aeruginosa [22] = assay: Antibacterial activity against Pseudomonas aeruginosa KB367 expressing IMP-1 assessed as inhibition of bacterial growth at 10 ug in presence of meropenem incubated overnight by paper disk method; format: functional; conditions: read-out: IZ
Pseudomonas aeruginosa [23] = assay: Antibacterial activity against Pseudomonas aeruginosa KB367 expressing IMP-1 assessed as inhibition of bacterial growth at 3 ug in presence of meropenem incubated overnight by paper disk method; format: functional; conditions: read-out: IZ
Pseudomonas aeruginosa [24] = assay: Antibacterial activity against Pseudomonas aeruginosa KB367 expressing IMP-1 assessed as inhibition of bacterial growth at 1 ug in presence of meropenem incubated overnight by paper disk method; format: functional; conditions: for zone of inhibition at 1 µg/disc: read-out: IZ
Pseudomonas aeruginosa [25] = assay: Antibacterial activity against Pseudomonas aeruginosa KB367 expressing IMP-1 assessed as inhibition of bacterial growth at 0.3 ug in presence of meropenem incubated overnight by paper disk method; format: functional, organism-based; conditions: dose 0.3 µg
Pseudomonas aeruginosa [26] = assay: Antibacterial activity against Pseudomonas aeruginosa KB367 expressing IMP-1 assessed as inhibition of bacterial growth at 0.1 ug in presence of meropenem incubated overnight by paper disk method; format: functional, organism-based; conditions: dose 0.1 µg
Pseudomonas aeruginosa [27] = assay: Antibacterial activity against Pseudomonas aeruginosa KB367 expressing IMP-1 assessed as inhibition of bacterial growth at 0.03 ug in presence of meropenem incubated overnight by paper disk method; format: functional, organism-based; conditions: dose 0.03 µg
Pseudomonas aeruginosa [28] = assay: Antibacterial activity against Pseudomonas aeruginosa KB367 expressing IMP-1 assessed as inhibition of bacterial growth at 0.01 ug in presence of meropenem incubated overnight by paper disk method; format: functional, organism-based; conditions: dose 0.01 µg
Pseudomonas aeruginosa [29] = assay: Antibacterial activity against Pseudomonas aeruginosa KB367 expressing IMP-1 assessed as inhibition of bacterial growth at 100 ug in absence of meropenem incubated overnight by paper disk method; format: functional, organism-based; conditions: dose 100.0 µg
Pseudomonas aeruginosa [30] = assay: Antibacterial activity against Pseudomonas aeruginosa KB367 expressing IMP-1 assessed as inhibition of bacterial growth at 30 ug in absence of meropenem incubated overnight by paper disk method; format: functional, organism-based; conditions: dose 30.0 µg
Pseudomonas aeruginosa [31] = assay: Antibacterial activity against Pseudomonas aeruginosa KB367 expressing IMP-1 assessed as inhibition of bacterial growth at 10 ug in absence of meropenem incubated overnight by paper disk method; format: functional, organism-based; conditions: dose 10.0 µg
Pseudomonas aeruginosa [32] = assay: Antibacterial activity against Pseudomonas aeruginosa KB367 expressing IMP-1 assessed as inhibition of bacterial growth at 3 ug in absence of meropenem incubated overnight by paper disk method; format: functional, organism-based; conditions: dose 3.0 µg
Pseudomonas aeruginosa [33] = assay: Antibacterial activity against Pseudomonas aeruginosa KB367 expressing IMP-1 assessed as inhibition of bacterial growth at 1 ug in absence of meropenem incubated overnight by paper disk method; format: functional, organism-based; conditions: dose 1.0 µg
Pseudomonas aeruginosa [34] = assay: Antibacterial activity against Pseudomonas aeruginosa KB367 expressing IMP-1 assessed as inhibition of bacterial growth at 0.3 ug in absence of meropenem incubated overnight by paper disk method; format: functional, organism-based; conditions: dose 0.3 µg
Pseudomonas aeruginosa [35] = assay: Antibacterial activity against Pseudomonas aeruginosa KB367 expressing IMP-1 assessed as inhibition of bacterial growth at 0.1 ug in absence of meropenem incubated overnight by paper disk method; format: functional, organism-based; conditions: dose 0.1 µg
Pseudomonas aeruginosa [36] = assay: Antibacterial activity against Pseudomonas aeruginosa KB367 expressing IMP-1 assessed as inhibition of bacterial growth at 0.03 ug in absence of meropenem incubated overnight by paper disk method; format: functional, organism-based; conditions: dose 0.03 µg
Pseudomonas aeruginosa [37] = assay: Antibacterial activity against Pseudomonas aeruginosa KB367 expressing IMP-1 assessed as inhibition of bacterial growth at 0.01 ug in absence of meropenem incubated overnight by paper disk method; format: functional, organism-based; conditions: dose 0.01 µg

Structure (SMILES)	IC50 [1]	zone of inhibition at 100 µg/disc (Escherichia coli [2])	zone of inhibition at 30 µg/disc (Escherichia coli [3])	zone of inhibition at 10 µg/disc (Escherichia coli [4])	zone of inhibition at 3 µg/disc (Escherichia coli [5])	zone of inhibition at 1 µg/disc (Escherichia coli [6])	zone of inhibition at 0.3 µg/disc (Escherichia coli [7])	zone of inhibition at 0.1 µg/disc (Escherichia coli [8])	zone of inhibition at 0.03 µg/disc (Escherichia coli [9])	inhibition zone (IZ) (Escherichia coli [10])	inhibition zone (IZ) (Escherichia coli [11])	inhibition zone (IZ) (Escherichia coli [12])	inhibition zone (IZ) (Escherichia coli [13])	inhibition zone (IZ) (Escherichia coli [14])	inhibition zone (IZ) (Escherichia coli [15])	inhibition zone (IZ) (Escherichia coli [16])	inhibition zone (IZ) (Escherichia coli [17])	inhibition zone (IZ) (Escherichia coli [18])	inhibition zone (IZ) (Escherichia coli [19])	zone of inhibition at 100 µg/disc (Pseudomonas aeruginosa [20])	also measured
CCCCC(C(=O)N1CCCCC1)=C(C(=O)O)c1ccc(O)c(O)c1	0.55 µg/mL (≈ 1.58 µM)	24 mm	23 mm	21 mm	20 mm	17 mm	15 mm	12 mm	10 mm	inactive	inactive	inactive	inactive	inactive	inactive	inactive	inactive	inactive	inactive	16 mm	zone of inhibition at 30 µg/disc (Pseudomonas aeruginosa [21]): 13 mm; zone of inhibition at 10 µg/disc (Pseudomonas aeruginosa [22]): 12 mm; zone of inhibition at 3 µg/disc (Pseudomonas aeruginosa [23]): 12 mm; zone of inhibition at 1 µg/disc (Pseudomonas aeruginosa [24]): 9 mm; inhibition zone (IZ) (Pseudomonas aeruginosa [25]): inactive; inhibition zone (IZ) (Pseudomonas aeruginosa [26]): inactive; inhibition zone (IZ) (Pseudomonas aeruginosa [27]): inactive; inhibition zone (IZ) (Pseudomonas aeruginosa [28]): inactive; inhibition zone (IZ) (Pseudomonas aeruginosa [29]): inactive; inhibition zone (IZ) (Pseudomonas aeruginosa [30]): inactive; inhibition zone (IZ) (Pseudomonas aeruginosa [31]): inactive; inhibition zone (IZ) (Pseudomonas aeruginosa [32]): inactive; inhibition zone (IZ) (Pseudomonas aeruginosa [33]): inactive; inhibition zone (IZ) (Pseudomonas aeruginosa [34]): inactive; inhibition zone (IZ) (Pseudomonas aeruginosa [35]): inactive; inhibition zone (IZ) (Pseudomonas aeruginosa [36]): inactive; inhibition zone (IZ) (Pseudomonas aeruginosa [37]): inactive
CCCC/C(C(=O)[O-])=C(/C(=O)[O-])c1ccc(O)c(O)c1.[Na+].[Na+]	0.56 µg/mL	31 mm	27 mm	22 mm	19 mm	15 mm	12 mm	10 mm	9 mm	inactive	inactive	inactive	inactive	inactive	inactive	inactive	inactive	inactive	inactive	20 mm	zone of inhibition at 30 µg/disc (Pseudomonas aeruginosa [21]): 18 mm; zone of inhibition at 10 µg/disc (Pseudomonas aeruginosa [22]): 14 mm; zone of inhibition at 3 µg/disc (Pseudomonas aeruginosa [23]): 11 mm; zone of inhibition at 1 µg/disc (Pseudomonas aeruginosa [24]): 9 mm; inhibition zone (IZ) (Pseudomonas aeruginosa [25]): inactive; inhibition zone (IZ) (Pseudomonas aeruginosa [26]): inactive; inhibition zone (IZ) (Pseudomonas aeruginosa [27]): inactive; inhibition zone (IZ) (Pseudomonas aeruginosa [28]): inactive; inhibition zone (IZ) (Pseudomonas aeruginosa [29]): inactive; inhibition zone (IZ) (Pseudomonas aeruginosa [30]): inactive; inhibition zone (IZ) (Pseudomonas aeruginosa [31]): inactive; inhibition zone (IZ) (Pseudomonas aeruginosa [32]): inactive; inhibition zone (IZ) (Pseudomonas aeruginosa [33]): inactive; inhibition zone (IZ) (Pseudomonas aeruginosa [34]): inactive; inhibition zone (IZ) (Pseudomonas aeruginosa [35]): inactive; inhibition zone (IZ) (Pseudomonas aeruginosa [36]): inactive; inhibition zone (IZ) (Pseudomonas aeruginosa [37]): inactive
CC/C=C/C(C(=O)[O-])=C(\CCC)C(=O)[O-].[Na+].[Na+]	2.2 µg/mL	30 mm	28 mm	26 mm	21 mm	19 mm	16 mm	13 mm	11 mm	inactive	inactive	inactive	inactive	inactive	inactive	inactive	inactive	inactive	inactive	23 mm	zone of inhibition at 30 µg/disc (Pseudomonas aeruginosa [21]): 19 mm; zone of inhibition at 10 µg/disc (Pseudomonas aeruginosa [22]): 14 mm; zone of inhibition at 3 µg/disc (Pseudomonas aeruginosa [23]): 7 mm; inhibition zone (IZ) (Pseudomonas aeruginosa [24]; dose 1.0 µg): inactive; inhibition zone (IZ) (Pseudomonas aeruginosa [25]): inactive; inhibition zone (IZ) (Pseudomonas aeruginosa [26]): inactive; inhibition zone (IZ) (Pseudomonas aeruginosa [27]): inactive; inhibition zone (IZ) (Pseudomonas aeruginosa [28]): inactive; inhibition zone (IZ) (Pseudomonas aeruginosa [29]): inactive; inhibition zone (IZ) (Pseudomonas aeruginosa [30]): inactive; inhibition zone (IZ) (Pseudomonas aeruginosa [31]): inactive; inhibition zone (IZ) (Pseudomonas aeruginosa [32]): inactive; inhibition zone (IZ) (Pseudomonas aeruginosa [33]): inactive; inhibition zone (IZ) (Pseudomonas aeruginosa [34]): inactive; inhibition zone (IZ) (Pseudomonas aeruginosa [35]): inactive; inhibition zone (IZ) (Pseudomonas aeruginosa [36]): inactive; inhibition zone (IZ) (Pseudomonas aeruginosa [37]): inactive

Reference: ChEMBL document CHEMBL5236661, “A new selective inhibitor for IMP-1 metallo-β-lactamase, 3Z,5E-octa-3,5-diene-1,3,4-tricarboxylic acid-3,4-anhydride” (Bioorg Med Chem, 2023)
